According to PubChem BioAssay (NCI):
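Where inhibition never reached the appropriate level, the endpoint shown equals the highest concentration tested. Otherwise, values were interpolated linearly from a five-concentration, 48-hour dose response in 96-well plates. At the TGI there is no net growth.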

Legend:
Assay in all cases: NCI tumour cell line growth inhibition, 48 h
DU-145 prostate = tested on: DU-145 prostate
HCT-15 colon = tested on: HCT-15 colon
OVCAR-3 ovarian = tested on: OVCAR-3 ovarian
MDA-MB-231 breast = tested on: MDA-MB-231 breast
NCI-H23 lung = tested on: NCI-H23 lung
COLO 205 colon = tested on: COLO 205 colon
HOP-62 NSCLC = tested on: HOP-62 NSCLC
OVCAR-5 ovarian = tested on: OVCAR-5 ovarian
SW-620 colon = tested on: SW-620 colon
RPMI-8226 leukemia = tested on: RPMI-8226 leukemia
SN12C renal = tested on: SN12C renal
HT29 colon = tested on: HT29 colon
SK-MEL-28 melanoma = tested on: SK-MEL-28 melanoma
SK-OV-3 ovarian = tested on: SK-OV-3 ovarian
KM12 colon = tested on: KM12 colon
NCI/ADR-RES ovarian = tested on: NCI/ADR-RES ovarian
HOP-92 NSCLC = tested on: HOP-92 NSCLC
CCRF-CEM leukemia = tested on: CCRF-CEM leukemia
MOLT-4 leukemia = tested on: MOLT-4 leukemia
UACC-257 melanoma = tested on: UACC-257 melanoma
IGROV1 ovarian = tested on: IGROV1 ovarian
TK-10 renal = tested on: TK-10 renal
UACC-62 melanoma = tested on: UACC-62 melanoma
NCI-H460 lung = tested on: NCI-H460 lung
U251 CNS = tested on: U251 CNS
A498 renal = tested on: A498 renal
HCT-116 colon = tested on: HCT-116 colon
MALME-3M melanoma = tested on: MALME-3M melanoma
UO-31 renal = tested on: UO-31 renal
SK-MEL-5 melanoma = tested on: SK-MEL-5 melanoma
CAKI-1 renal = tested on: CAKI-1 renal
SNB-19 CNS = tested on: SNB-19 CNS
MDA-N = tested on: MDA-N
SK-MEL-2 melanoma = tested on: SK-MEL-2 melanoma
RXF 393 renal = tested on: RXF 393 renal
M14 melanoma = tested on: M14 melanoma
HS 578T breast = tested on: HS 578T breast
NCI-H226 lung = tested on: NCI-H226 lung
T-47D breast = tested on: T-47D breast
SF-295 CNS = tested on: SF-295 CNS
K-562 leukemia = tested on: K-562 leukemia
PC-3 prostate = tested on: PC-3 prostate
MCF7 breast = tested on: MCF7 breast
MDA-MB-435 = tested on: MDA-MB-435
OVCAR-8 ovarian = tested on: OVCAR-8 ovarian
SNB-75 CNS = tested on: SNB-75 CNS
LOX IMVI melanoma = tested on: LOX IMVI melanoma
OVCAR-4 ovarian = tested on: OVCAR-4 ovarian
BT-549 breast = tested on: BT-549 breast
SR leukemia = tested on: SR leukemia
HCC-2998 colon = tested on: HCC-2998 colon
ACHN renal = tested on: ACHN renal
A549 NSCLC = tested on: A549 NSCLC
SF-539 CNS = tested on: SF-539 CNS
EKVX NSCLC = tested on: EKVX NSCLC
HL-60(TB) leukemia = tested on: HL-60(TB) leukemia
SF-268 CNS = tested on: SF-268 CNS
786-0 renal = tested on: 786-0 renal
NCI-H522 lung = tested on: NCI-H522 lung

Nc1nccc2c1ncn2[C@H]1C[C@H](O)[C@@H](CO)O1
TGI (DU-145 prostate): > 100 µM | TGI (HCT-15 colon): > 100 µM | TGI (OVCAR-3 ovarian): > 100 µM | TGI (MDA-MB-231 breast): > 100 µM | TGI (NCI-H23 lung): > 100 µM | TGI (COLO 205 colon): > 100 µM | TGI (HOP-62 NSCLC): > 100 µM | TGI (OVCAR-5 ovarian): > 100 µM | TGI (SW-620 colon): > 100 µM | TGI (RPMI-8226 leukemia): > 100 µM | TGI (SN12C renal): > 100 µM | TGI (HT29 colon): > 100 µM | TGI (SK-MEL-28 melanoma): > 100 µM | TGI (SK-OV-3 ovarian): > 100 µM | TGI (KM12 colon): > 100 µM | TGI (NCI/ADR-RES ovarian): > 100 µM | TGI (HOP-92 NSCLC): > 100 µM | TGI (CCRF-CEM leukemia): > 100 µM | TGI (MOLT-4 leukemia): > 100 µM | TGI (UACC-257 melanoma): > 100 µM | TGI (IGROV1 ovarian): > 100 µM | TGI (TK-10 renal): > 100 µM | TGI (UACC-62 melanoma): > 100 µM | TGI (NCI-H460 lung): > 100 µM | TGI (U251 CNS): > 100 µM | TGI (A498 renal): > 100 µM | TGI (HCT-116 colon): > 100 µM | TGI (MALME-3M melanoma): > 100 µM | TGI (UO-31 renal): > 100 µM | TGI (SK-MEL-5 melanoma): > 100 µM | TGI (CAKI-1 renal): > 100 µM | TGI (SNB-19 CNS): > 100 µM | TGI (MDA-N): > 100 µM | TGI (SK-MEL-2 melanoma): > 100 µM | TGI (RXF 393 renal): > 100 µM | TGI (M14 melanoma): > 100 µM | TGI (HS 578T breast): > 100 µM | TGI (NCI-H226 lung): > 100 µM | TGI (T-47D breast): > 100 µM | TGI (SF-295 CNS): > 100 µM | TGI (K-562 leukemia): > 100 µM | TGI (PC-3 prostate): > 100 µM | TGI (MCF7 breast): > 100 µM | TGI (MDA-MB-435): > 100 µM | TGI (OVCAR-8 ovarian): > 100 µM | TGI (SNB-75 CNS): > 100 µM | TGI (LOX IMVI melanoma): > 100 µM | TGI (OVCAR-4 ovarian): > 100 µM | TGI (BT-549 breast): > 100 µM | TGI (SR leukemia): > 100 µM | TGI (HCC-2998 colon): > 100 µM

COC(=O)[C@]12CC[C@H]3CN(C(=O)OCc4ccccc4)[C@H]([C@H]31)[C@H](c1ccccc1)N2
TGI (DU-145 prostate): > 100 µM | TGI (HCT-15 colon): > 100 µM | TGI (OVCAR-3 ovarian): > 100 µM | TGI (MDA-MB-231 breast): > 100 µM | TGI (NCI-H23 lung): > 100 µM | TGI (COLO 205 colon): > 100 µM | TGI (HOP-62 NSCLC): > 100 µM | TGI (OVCAR-5 ovarian): > 100 µM | TGI (SW-620 colon): > 100 µM | TGI (RPMI-8226 leukemia): > 100 µM | TGI (SN12C renal): > 100 µM | TGI (HT29 colon): > 100 µM | TGI (SK-MEL-28 melanoma): > 100 µM | TGI (SK-OV-3 ovarian): > 100 µM | TGI (KM12 colon): > 100 µM | TGI (NCI/ADR-RES ovarian): > 100 µM | TGI (HOP-92 NSCLC): > 100 µM | TGI (ACHN renal): > 100 µM | TGI (A549 NSCLC): > 100 µM | TGI (CCRF-CEM leukemia): > 100 µM | TGI (MOLT-4 leukemia): > 100 µM | TGI (UACC-257 melanoma): > 100 µM | TGI (IGROV1 ovarian): > 100 µM | TGI (TK-10 renal): > 100 µM | TGI (UACC-62 melanoma): > 100 µM | TGI (NCI-H460 lung): > 100 µM | TGI (U251 CNS): > 100 µM | TGI (SF-539 CNS): > 100 µM | TGI (A498 renal): > 100 µM | TGI (EKVX NSCLC): > 100 µM | TGI (HCT-116 colon): > 100 µM | TGI (UO-31 renal): > 100 µM | TGI (SK-MEL-5 melanoma): 58.3 µM | TGI (CAKI-1 renal): > 100 µM | TGI (SNB-19 CNS): > 100 µM | TGI (MDA-N): > 100 µM | TGI (HL-60(TB) leukemia): > 100 µM | TGI (SK-MEL-2 melanoma): > 100 µM | TGI (RXF 393 renal): > 100 µM | TGI (M14 melanoma): > 100 µM | TGI (HS 578T breast): > 100 µM | TGI (NCI-H226 lung): > 100 µM | TGI (T-47D breast): > 100 µM | TGI (SF-295 CNS): > 100 µM | TGI (SF-268 CNS): > 100 µM | TGI (K-562 leukemia): > 100 µM | TGI (PC-3 prostate): > 100 µM | TGI (MCF7 breast): > 100 µM | TGI (786-0 renal): > 100 µM | TGI (MDA-MB-435): > 100 µM | TGI (OVCAR-8 ovarian): > 100 µM | TGI (SNB-75 CNS): > 100 µM | TGI (LOX IMVI melanoma): > 100 µM | TGI (OVCAR-4 ovarian): > 100 µM | TGI (NCI-H522 lung): > 100 µM | TGI (BT-549 breast): > 100 µM | TGI (SR leukemia): > 100 µM | TGI (HCC-2998 colon): > 100 µM
